Patent US11660303B2, “2-phenylimidazo[4,5-b]pyridin-7-amine derivates useful as inhibitors of mammalian tyrosine kinase ROR1 activity” (KANCERA AB, priority 2016, dated 2023)

Key:
PBMC from CLL patients = assay: CellTiter-Blue Cell Viability Assay, PBMC from CLL patients; assay type: cell-based; details: Homo sapiens, cell toxicity, culture 24, 48 and 72 h (time of the values not stated)
Method: (§1) The CellTiter-Blue® Cell Viability Assay provides a homogeneous, fluorometric method for estimating the number of viable cells present in multi-well plates. The assay uses the indicator dye resazurin to measure the metabolic capacity of cells. Viable cells retain the ability to reduce resazurin into resorufin, which is highly fluorescent.
(§2) Stock solutions (10 or 100 mM in DMSO) of compounds were serially diluted 1:2 in 11 concentrations and 25 nL/well (100 mM stock) or 50 nL/well (10 mM stock) were acoustically dispensed in assay plates with an EDC acoustic dispenser. Final starting concentration in the assay was 20 μM (0.2% DMSO) or 100 μM (0.1% DMSO) for test compounds.
(§3) Peripheral blood mononuclear cells (PBMC) from CLL patients or healthy volunteers were seeded in assay plates (384-well black/clear, Greiner #781091) pre-dispensed with compounds, 25 μL/well, and cultured for 24, 48 and 72 h. The cell concentration was 50 000 cells/well for PBMC from CLL patients or healthy volunteers. After 24, 48 and 72 h culture, Celltiter Blue reagent was added (5 μL/well) and the plates were incubated for 2 h. The plates were read in an Envision fluorescence reader (PerkinElmer) with Ex544 nm/Em590 nm. Results were calculated as % cytotoxicity compared to background (cells treated with 0.2% DMSO).
(§4) Thus, IC50 values for cell toxicity in PBMC from CLL patients as well as healthy volunteers for some compounds of the invention are shown in Table 3 as measured by the CellTiter-Blue® Cell Viability Assay.

[1] = tested on: PBMC from healthy volunteers; assay: CellTiter-Blue Cell Viability Assay, PBMC from healthy volunteers; assay type: cell-based; details: Homo sapiens, cell toxicity, culture 24, 48 and 72 h (time of the values not stated)
Method: as §1, §2, §3, §4

Structure (SMILES)	IC50 (PBMC from CLL patients)	IC50 [1]
CN1CC[C@H](Nc2c(Br)cnc3[nH]c(-c4ccc(N5CCN(Cc6cncnc6)CC5)cc4)nc23)C1 [Example 157, 6-Bromo-N-[(3S)-1-methylpyrrolidin-3-yl]-2-{4-[4-(pyrimidin-5-ylmethyl)piperazin-1-yl]phenyl}-3H-imidazo[4,5-b]pyridin-7-amine]	290 nM	> 20 µM
CC(C)N1CCC(Nc2c(Cl)cnc3[nH]c(-c4ccc(N5CCN(Cc6cccnc6)CC5)cc4)nc23)CC1 [Example 168, 6-Chloro-N-[1-(1-methylethyl)piperidin-4-yl]-2-{4-[4-(pyridin-3-ylmethyl)piperazin-1-yl]phenyl}-3H-imidazo[4,5-b]pyridin-7-amine]	230 nM	17.2 µM
CCN1CCC(Nc2c(Br)cnc3[nH]c(-c4ccc(N5CCN(Cc6cccnc6)CC5)cc4)nc23)CC1 [Example 174, 6-Bromo-N-(1-ethylpiperidin-4-yl)-2-{4-[4-(pyridin-3-ylmethyl)piperazin-1-yl]phenyl}-3H-imidazo[4,5-b]pyridin-7-amine]	10 nM	> 20 µM
COCCN1CCN(c2ccc(-c3nc4c(NC5CCN(C)CC5)c(Cl)cnc4[nH]3)cc2)CC1=O [Example 230, 4-(4-{6-Chloro-7-[(1-methylpiperidin-4-yl)amino]-3H-imidazo[4,5-b]pyridin-2-yl}phenyl)-1-(2-methoxyethyl)piperazin-2-one]	70 nM	> 20 µM
CCN1CCC(Nc2c(Br)cnc3[nH]c(-c4ccc(N5CCN(C(=O)COC)CC5)cc4)nc23)CC1 [Example 239, 6-Bromo-N-(1-ethylpiperidin-4-yl)-2-{4-[4-(methoxyacetyl)piperazin-1-yl]phenyl}-3H-imidazo[4,5-b]pyridin-7-amine]	100 nM	> 20 µM
COCCCN1CCN(c2ccc(-c3nc4c(NC5CCN(C(C)C)CC5)c(Cl)cnc4[nH]3)cc2)CC1=O [Example 246, 4-[4-(6-Chloro-7-{[1-(1-methylethyl)piperidin-4-yl]amino}-3H-imidazo[4,5-b]pyridin-2-yl)phenyl]-1-(3-methoxypropyl)piperazin-2-one]	110 nM	> 20 µM
CN1CCC(Nc2c(Cl)cnc3[nH]c(-c4ccc(N5CCC(CCO)CC5)cc4)nc23)CC1 [Example 254, 2-[1-(4-{6-Chloro-7-[(1-methylpiperidin-4-yl)amino]-3H-imidazo[4,5-b]pyridin-2-yl}phenyl)piperidin-4-yl]ethanol]	50 nM	16.3 µM
COCCN1CCN(c2ccc(-c3nc4c(NC5CCN(Cc6ccc(OC)cc6)CC5)c(Cl)cnc4[nH]3)cc2)CC1=O [Example 260]	220 nM	> 20 µM
CN1CCC(Nc2c(Br)cnc3[nH]c(-c4ccc(N5CCN(CCCO)CC5)cc4)nc23)CC1 [Example 268, 3-[4-(4-{6-Bromo-7-[(1-methylpiperidin-4-yl)amino]-3H-imidazo[4,5-b]pyridin-2-yl}phenyl)piperazin-1-yl]propan-1-ol]	10 nM	> 20 µM
COCCC(=O)N1CCN(c2ccc(-c3nc4c(NC5CCN(C)CC5)c(Cl)cnc4[nH]3)cc2)CC1 [Example 276, 6-Chloro-2-{4-[4-(3-methoxypropanoyl)piperazin-1-yl]phenyl}-N-(1-methylpiperidin-4-yl)-3H-imidazo[4,5-b]pyridin-7-amine]	50 nM	> 20 µM
COCCC1CCN(c2ccc(-c3nc4c(NC5CCN(C)CC5)c(Cl)cnc4[nH]3)cc2)CC1 [Example 281, 6-Chloro-2-{4-[4-(2-methoxyethyl)piperidin-1-yl]phenyl}-N-(1-methylpiperidin-4-yl)-3H-imidazo[4,5-b]pyridin-7-amine]	60 nM	8.4 µM
CN1CCC(Nc2c(Cl)cnc3[nH]c(-c4ccc(N5CCN(Cc6ccccc6)C(=O)C5)cc4)nc23)CC1 [Example 291, 1-Benzyl-4-(4-{6-chloro-7-[(1-methylpiperidin-4-yl)amino]-3H-imidazo[4,5-b]pyridin-2-yl}phenyl)piperazin-2-one]	40 nM	6.5 µM
CCN1CCC(Nc2c(Br)cnc3[nH]c(-c4ccc(N5CCN(C)C(=O)C5)cc4)nc23)CC1 [Example 299, 4-(4-{6-Bromo-7-[(1-ethylpiperidin-4-yl)amino]-3H-imidazo[4,5-b]pyridin-2-yl}phenyl)-1-methylpiperazin-2-one]	90 nM	> 20 µM
CCN1CCC(Nc2c(Br)cnc3[nH]c(-c4ccc(N5CCN(C(=O)c6cccnc6)CC5)cc4)nc23)CC1 [Example 304, 6-Bromo-N-(1-ethylpiperidin-4-yl)-2-{4-[4-(pyridin-3-ylcarbonyl)piperazin-1-yl]phenyl}-3H-imidazo[4,5-b]pyridin-7-amine]	60 nM	> 20 µM
COCCCN1CCN(c2ccc(-c3nc4c(NC5CCN(CCOC)CC5)c(Cl)cnc4[nH]3)cc2)CC1 [Example 308, 6-Chloro-N-[1-(2-methoxyethyl)piperidin-4-yl]-2-{4-[4-(3-methoxypropyl)piperazin-1-yl]phenyl}-3H-imidazo[4,5-b]pyridin-7-amine]	650 nM	> 20 µM
CCN1CCC(Nc2c(Cl)cnc3[nH]c(-c4ccc(N5CCN(Cc6cncs6)CC5)cc4)nc23)CC1 [Example 320, 6-Chloro-N-(1-ethylpiperidin-4-yl)-2-{4-[4-(1,3-thiazol-5-ylmethyl)piperazin-1-yl]phenyl}-3H-imidazo[4,5-b]pyridin-7-amine]	100 nM	> 20 µM
CC(C)N1CCC(Nc2c(Cl)cnc3[nH]c(-c4ccc(N5CCN(CCNc6ccnn6C)CC5)cc4)nc23)CC1 [Example 326, 6-Chloro-N-[1-(1-methylethyl)piperidin-4-yl]-2-[4-(4-{2-[(1-methyl-1H-pyrazol-5-yl)amino]ethyl}piperazin-1-yl)phenyl]-3H-imidazo[4,5-b]pyridin-7-amine]	260 nM	> 20 µM
CCN1CCC(Nc2c(Br)cnc3[nH]c(-c4ccc(N5CCN(C(=O)c6ccncc6)CC5)cc4)nc23)CC1 [Example 331, 6-Bromo-N-(1-ethylpiperidin-4-yl)-2-{4-[4-(pyridin-4-ylcarbonyl)piperazin-1-yl]phenyl}-3H-imidazo[4,5-b]pyridin-7-amine]	190 nM	> 20 µM
CC(C)N1CCC(Nc2c(Br)cnc3[nH]c(-c4ccc(N5CCN(CCC#N)CC5)cc4)nc23)CC1 [Example 337, 3-{4-[4-(6-Bromo-7-{[1-(1-methylethyl)piperidin-4-yl]amino}-3H-imidazo[4,5-b]pyridin-2-yl)phenyl]piperazin-1-yl}propanenitrile]	250 nM	> 20 µM
CCOCCN1CCN(c2ccc(-c3nc4c(NC5CC(C)(C)N(C)C(C)(C)C5)c(Br)cnc4[nH]3)cc2)CC1=O [Example 342, 4-(4-{6-Bromo-7-[(1,2,2,6,6-pentamethylpiperidin-4-yl)amino]-3H-imidazo[4,5-b]pyridin-2-yl}phenyl)-1-(2-ethoxyethyl)piperazin-2-one]	40 nM	> 20 µM
COCCN1CCN(c2ccc(-c3nc4c(NC5CCN(CC6CC6)CC5)c(Cl)cnc4[nH]3)cc2)CC1=O [Example 355, 4-[4-(6-Chloro-7-{[1-(cyclopropylmethyl)piperidin-4-yl]amino}-3H-imidazo[4,5-b]pyridin-2-yl)phenyl]-1-(2-methoxyethyl)piperrazin-2-one]	110 nM	> 20 µM
CCN1CCC(Nc2c(Br)cnc3[nH]c(-c4ccc(N5CCN(C(=O)C(C)(C)C)CC5)cc4)nc23)CC1 [Example 363, 6-Bromo-2-{4-[4-(2,2-dimethylpropanoyl)piperazin-1-yl]phenyl}-N-(1-ethylpiperidin-4-yl)-3H-imidazo[4,5-b]pyridin-7-amine]	140 nM	3.1 µM
COCCN1CCN(c2ccc(-c3nc4c(NC5CCN(C)CC5)c(Cl)cnc4[nH]3)cc2F)CC1 [Example 372, 6-Chloro-2-{3-fluoro-4-[4-(2-methoxyethyl)piperazin-1-yl]phenyl}-N-(1-methylpiperidin-4-yl)-3H-imidazo[4,5-b]pyridin-7-amine]	310 nM	> 20 µM
COCCN1CCN(c2ccc(-c3nc4c(NC5CCN(C)CC5)c(Cl)cnc4[nH]3)cc2OC)CC1 [Example 381, 6-Chloro-2-{3-methoxy-4-[4-(2-methoxyethyl)piperazin-1-yl]phenyl}-N-(1-methylpiperidin-4-yl)-3H-imidazo[4,5-b]pyridin-7-amine]	400 nM	> 20 µM
COCCN1CCN(c2ccc(-c3nc4c(NC5CCN(C(C)C)CC5)c(Cl)cnc4[nH]3)cc2OC)CC1 [Example 387, 6-Chloro-2-{3-methoxy-4-[4-(2-methoxyethyl)piperazin-1-yl]phenyl}-N-[1-(1-methylethyl)piperidin-4-yl]-3H-imidazo[4,5-b]pyridin-7-amine]	1300 nM	> 20 µM
COCCN1CCN(c2ccc(-c3nc4c(NC5CCN(CCC#N)CC5)c(Cl)cnc4[nH]3)cc2)CC1 [Example 396, 3-{4-[(6-Chloro-2-{4-[4-(2-methoxyethyl)piperazin-1-yl]phenyl}-3H-imidazo[4,5-b]pyridin-7-yl)amino]piperidin-1-yl}propanenitrile]	190 nM	> 20 µM
